Measurements from paper PMC6812009, “Covalent Aurora A regulation by the metabolic integrator coenzyme A” (Redox Biology, 2019).

What was measured:
Experiment in all cases: Kinase profiling screen (radioactive filter-binding assay)
Type in all cases: biochemical
IKKε = target: T1, IKKε (Homo sapiens, UniProt Q14164); settings: 100 μM compound, 50 μM ATP; read-out: Kinase activity, % of activity in the absence of inhibitor
T1 sequence (Q14164 1-716): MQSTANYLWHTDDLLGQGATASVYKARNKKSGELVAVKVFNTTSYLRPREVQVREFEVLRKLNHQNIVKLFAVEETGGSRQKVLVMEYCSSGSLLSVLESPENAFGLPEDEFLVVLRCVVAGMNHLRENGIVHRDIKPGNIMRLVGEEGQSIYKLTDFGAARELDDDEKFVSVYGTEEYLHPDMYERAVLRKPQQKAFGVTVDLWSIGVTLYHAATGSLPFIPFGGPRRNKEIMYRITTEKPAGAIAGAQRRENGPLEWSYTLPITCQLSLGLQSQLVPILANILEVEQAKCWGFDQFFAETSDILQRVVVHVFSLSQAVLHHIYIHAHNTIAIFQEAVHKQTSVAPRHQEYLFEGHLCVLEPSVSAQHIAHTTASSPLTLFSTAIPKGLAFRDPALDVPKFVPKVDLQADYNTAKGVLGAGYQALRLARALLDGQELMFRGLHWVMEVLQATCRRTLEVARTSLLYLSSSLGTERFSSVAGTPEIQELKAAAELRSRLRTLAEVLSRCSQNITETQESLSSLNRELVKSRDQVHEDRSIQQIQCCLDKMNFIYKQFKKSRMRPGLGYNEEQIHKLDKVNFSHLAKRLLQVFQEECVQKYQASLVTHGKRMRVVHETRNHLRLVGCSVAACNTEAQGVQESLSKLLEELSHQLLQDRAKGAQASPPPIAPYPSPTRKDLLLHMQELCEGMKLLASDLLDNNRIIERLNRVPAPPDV
Procedure, shortened: (§1)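 Panel of 117 recombinant kinases; CoA, dpCoA, ADP each at 100 μM final, duplicates; model substrates, ATP at optimal level.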

GCK = target: T2, GCK (Homo sapiens, UniProt Q12851); settings: 100 μM compound, 20 μM ATP; read-out: Kinase activity, % of activity in the absence of inhibitor
T2 sequence (Q12851 1-820): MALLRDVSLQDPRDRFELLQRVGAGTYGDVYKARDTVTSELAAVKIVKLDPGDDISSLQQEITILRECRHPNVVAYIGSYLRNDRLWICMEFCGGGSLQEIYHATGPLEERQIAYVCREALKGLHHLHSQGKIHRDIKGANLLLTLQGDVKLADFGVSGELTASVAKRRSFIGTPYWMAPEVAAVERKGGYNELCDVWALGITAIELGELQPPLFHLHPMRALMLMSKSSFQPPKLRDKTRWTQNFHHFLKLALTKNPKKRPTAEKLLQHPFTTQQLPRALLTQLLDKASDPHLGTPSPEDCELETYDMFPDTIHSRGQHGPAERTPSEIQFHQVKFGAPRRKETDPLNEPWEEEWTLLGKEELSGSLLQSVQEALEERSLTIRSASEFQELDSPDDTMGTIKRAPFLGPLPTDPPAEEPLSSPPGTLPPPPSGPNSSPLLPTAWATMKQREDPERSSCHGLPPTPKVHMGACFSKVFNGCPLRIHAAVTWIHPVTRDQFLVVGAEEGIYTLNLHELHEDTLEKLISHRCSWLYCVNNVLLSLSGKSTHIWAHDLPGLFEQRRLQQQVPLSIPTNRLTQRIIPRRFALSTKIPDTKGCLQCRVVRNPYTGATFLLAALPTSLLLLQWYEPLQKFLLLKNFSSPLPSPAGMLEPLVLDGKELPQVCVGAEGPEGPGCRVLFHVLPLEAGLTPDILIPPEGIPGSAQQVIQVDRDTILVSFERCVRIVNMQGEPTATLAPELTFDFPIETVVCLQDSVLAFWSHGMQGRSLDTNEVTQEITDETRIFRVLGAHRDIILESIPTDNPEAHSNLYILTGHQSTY
Procedure, shortened: as §1

JAK2 = JAK2 (Homo sapiens, UniProt O60674); settings: 100 μM compound, 5 μM ATP; read-out: Kinase activity, % of activity in the absence of inhibitor
Procedure, shortened: as §1

MINK1 = MINK1 (Homo sapiens, UniProt Q8N4C8); settings: 100 μM compound, 50 μM ATP; read-out: Kinase activity, % of activity in the absence of inhibitor
Procedure, shortened: as §1

BTK = BTK (Homo sapiens, UniProt Q06187); settings: for activity at 100 µM: 100 μM compound, 50 μM ATP, read-out: Kinase activity, % of activity in the absence of inhibitor
Procedure, shortened: as §1

ABL = ABL (Homo sapiens, UniProt P00519); settings: 100 μM compound, 5 μM ATP; read-out: Kinase activity, % of activity in the absence of inhibitor
Procedure, shortened: as §1

JNK1 = JNK1 (Homo sapiens, UniProt P45983); settings: 100 μM compound, 20 μM ATP; read-out: Kinase activity, % of activity in the absence of inhibitor
Procedure, shortened: as §1

MKK6 = target: T3, MKK6 (Homo sapiens, UniProt P52564); settings: 100 μM compound, 50 μM ATP; read-out: Kinase activity, % of activity in the absence of inhibitor
T3 sequence (P52564 1-334): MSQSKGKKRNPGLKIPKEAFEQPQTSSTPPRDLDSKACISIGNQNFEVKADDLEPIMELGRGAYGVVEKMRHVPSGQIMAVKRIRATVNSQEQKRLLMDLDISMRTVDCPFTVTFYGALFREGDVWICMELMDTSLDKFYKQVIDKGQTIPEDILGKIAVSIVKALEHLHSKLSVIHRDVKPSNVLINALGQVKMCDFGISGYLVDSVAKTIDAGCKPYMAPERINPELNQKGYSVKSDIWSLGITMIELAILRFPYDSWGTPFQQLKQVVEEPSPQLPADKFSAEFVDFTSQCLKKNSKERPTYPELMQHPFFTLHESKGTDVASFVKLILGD
Procedure, shortened: as §1

Sequence of MINK1 (Q8N4C8 whole entry): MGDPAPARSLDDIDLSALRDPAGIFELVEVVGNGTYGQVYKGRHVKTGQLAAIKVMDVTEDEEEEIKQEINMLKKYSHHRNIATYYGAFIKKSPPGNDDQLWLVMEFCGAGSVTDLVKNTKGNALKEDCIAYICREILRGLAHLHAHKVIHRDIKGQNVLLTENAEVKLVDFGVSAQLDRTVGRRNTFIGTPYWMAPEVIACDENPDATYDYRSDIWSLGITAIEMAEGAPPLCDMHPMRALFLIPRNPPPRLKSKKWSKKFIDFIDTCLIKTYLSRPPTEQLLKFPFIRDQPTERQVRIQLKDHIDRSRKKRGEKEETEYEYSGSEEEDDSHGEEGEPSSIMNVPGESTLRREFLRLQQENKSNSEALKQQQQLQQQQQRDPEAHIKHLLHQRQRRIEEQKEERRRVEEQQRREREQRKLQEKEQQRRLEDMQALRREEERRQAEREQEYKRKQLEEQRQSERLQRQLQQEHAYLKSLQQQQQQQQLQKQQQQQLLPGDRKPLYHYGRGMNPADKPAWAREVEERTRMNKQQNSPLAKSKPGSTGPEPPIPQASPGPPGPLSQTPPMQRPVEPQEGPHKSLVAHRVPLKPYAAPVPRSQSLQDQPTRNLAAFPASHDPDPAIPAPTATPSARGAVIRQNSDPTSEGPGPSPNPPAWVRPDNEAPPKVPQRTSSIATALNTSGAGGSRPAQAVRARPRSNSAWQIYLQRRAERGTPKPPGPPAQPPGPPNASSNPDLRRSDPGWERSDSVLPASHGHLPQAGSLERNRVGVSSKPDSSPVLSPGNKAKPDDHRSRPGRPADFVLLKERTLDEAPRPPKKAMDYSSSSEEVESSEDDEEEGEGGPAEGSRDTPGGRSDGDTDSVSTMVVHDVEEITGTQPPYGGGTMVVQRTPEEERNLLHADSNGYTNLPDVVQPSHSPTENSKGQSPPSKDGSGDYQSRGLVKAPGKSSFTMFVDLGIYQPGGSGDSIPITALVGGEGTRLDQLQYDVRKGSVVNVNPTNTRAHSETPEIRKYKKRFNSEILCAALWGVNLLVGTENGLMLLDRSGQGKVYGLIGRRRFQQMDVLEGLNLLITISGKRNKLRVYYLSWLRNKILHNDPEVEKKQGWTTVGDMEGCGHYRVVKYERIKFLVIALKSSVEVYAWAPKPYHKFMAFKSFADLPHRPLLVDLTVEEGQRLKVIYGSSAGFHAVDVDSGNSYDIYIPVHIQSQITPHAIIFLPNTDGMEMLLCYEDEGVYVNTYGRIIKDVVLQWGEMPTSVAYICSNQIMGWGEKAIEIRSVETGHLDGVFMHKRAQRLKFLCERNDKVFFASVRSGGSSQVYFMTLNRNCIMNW
Sequence of JAK2 (O60674 whole entry): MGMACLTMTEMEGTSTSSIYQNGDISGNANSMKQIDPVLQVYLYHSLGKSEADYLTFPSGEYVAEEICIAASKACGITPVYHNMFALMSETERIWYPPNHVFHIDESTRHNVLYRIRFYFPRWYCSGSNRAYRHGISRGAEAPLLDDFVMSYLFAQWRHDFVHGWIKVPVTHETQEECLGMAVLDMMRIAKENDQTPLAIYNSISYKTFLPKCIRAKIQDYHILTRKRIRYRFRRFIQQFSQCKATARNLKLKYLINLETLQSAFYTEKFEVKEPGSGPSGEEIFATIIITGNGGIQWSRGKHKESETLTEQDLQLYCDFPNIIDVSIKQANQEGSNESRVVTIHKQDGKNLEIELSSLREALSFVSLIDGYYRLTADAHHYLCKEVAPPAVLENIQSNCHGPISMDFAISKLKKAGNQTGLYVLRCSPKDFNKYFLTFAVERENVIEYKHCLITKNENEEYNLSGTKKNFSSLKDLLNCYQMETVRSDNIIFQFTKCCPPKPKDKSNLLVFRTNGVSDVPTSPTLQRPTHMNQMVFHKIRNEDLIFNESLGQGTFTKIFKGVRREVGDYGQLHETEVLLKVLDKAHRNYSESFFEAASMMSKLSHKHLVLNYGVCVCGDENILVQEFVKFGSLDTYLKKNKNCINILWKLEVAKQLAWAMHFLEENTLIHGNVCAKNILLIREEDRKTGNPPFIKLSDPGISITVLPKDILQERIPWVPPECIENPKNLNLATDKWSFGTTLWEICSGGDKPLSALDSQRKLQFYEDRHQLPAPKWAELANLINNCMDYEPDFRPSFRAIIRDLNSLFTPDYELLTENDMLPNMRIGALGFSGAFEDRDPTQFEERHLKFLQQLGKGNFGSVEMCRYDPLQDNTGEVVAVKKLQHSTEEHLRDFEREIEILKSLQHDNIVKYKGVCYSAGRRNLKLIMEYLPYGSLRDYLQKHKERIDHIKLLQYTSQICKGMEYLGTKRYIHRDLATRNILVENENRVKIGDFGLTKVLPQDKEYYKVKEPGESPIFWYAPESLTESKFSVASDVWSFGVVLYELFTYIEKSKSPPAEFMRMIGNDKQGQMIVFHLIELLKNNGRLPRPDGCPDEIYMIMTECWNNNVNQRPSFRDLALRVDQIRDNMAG
Sequence of BTK (Q06187 whole entry): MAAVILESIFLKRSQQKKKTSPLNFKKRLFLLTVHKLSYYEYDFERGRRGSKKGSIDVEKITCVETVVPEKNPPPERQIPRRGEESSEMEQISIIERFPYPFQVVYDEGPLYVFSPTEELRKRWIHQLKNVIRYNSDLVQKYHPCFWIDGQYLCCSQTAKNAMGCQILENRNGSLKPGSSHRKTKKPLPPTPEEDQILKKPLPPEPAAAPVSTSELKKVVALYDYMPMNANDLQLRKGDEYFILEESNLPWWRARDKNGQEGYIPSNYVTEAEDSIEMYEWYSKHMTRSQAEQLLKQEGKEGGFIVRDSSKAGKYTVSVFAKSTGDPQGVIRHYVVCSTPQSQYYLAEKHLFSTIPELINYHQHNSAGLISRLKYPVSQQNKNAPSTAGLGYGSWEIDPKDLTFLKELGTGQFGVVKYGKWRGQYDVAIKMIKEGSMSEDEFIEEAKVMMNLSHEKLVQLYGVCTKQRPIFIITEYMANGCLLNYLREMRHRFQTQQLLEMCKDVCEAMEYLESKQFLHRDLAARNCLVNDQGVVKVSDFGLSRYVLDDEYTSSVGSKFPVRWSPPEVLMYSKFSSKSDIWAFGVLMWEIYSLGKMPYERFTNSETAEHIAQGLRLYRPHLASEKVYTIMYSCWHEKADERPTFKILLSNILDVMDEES
Sequence of JNK1 (P45983 whole entry): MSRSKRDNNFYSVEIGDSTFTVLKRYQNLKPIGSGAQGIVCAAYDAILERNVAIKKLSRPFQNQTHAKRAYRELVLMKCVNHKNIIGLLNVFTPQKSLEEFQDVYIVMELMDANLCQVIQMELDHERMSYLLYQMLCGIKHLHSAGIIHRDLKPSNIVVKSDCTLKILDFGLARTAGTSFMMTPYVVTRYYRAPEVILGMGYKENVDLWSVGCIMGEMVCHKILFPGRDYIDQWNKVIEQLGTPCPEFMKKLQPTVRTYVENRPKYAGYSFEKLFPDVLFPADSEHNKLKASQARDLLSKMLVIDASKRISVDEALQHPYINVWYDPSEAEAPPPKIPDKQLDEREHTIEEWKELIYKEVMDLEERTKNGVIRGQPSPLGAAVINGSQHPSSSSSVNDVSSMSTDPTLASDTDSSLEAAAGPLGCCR
Sequence of ABL (P00519 whole entry): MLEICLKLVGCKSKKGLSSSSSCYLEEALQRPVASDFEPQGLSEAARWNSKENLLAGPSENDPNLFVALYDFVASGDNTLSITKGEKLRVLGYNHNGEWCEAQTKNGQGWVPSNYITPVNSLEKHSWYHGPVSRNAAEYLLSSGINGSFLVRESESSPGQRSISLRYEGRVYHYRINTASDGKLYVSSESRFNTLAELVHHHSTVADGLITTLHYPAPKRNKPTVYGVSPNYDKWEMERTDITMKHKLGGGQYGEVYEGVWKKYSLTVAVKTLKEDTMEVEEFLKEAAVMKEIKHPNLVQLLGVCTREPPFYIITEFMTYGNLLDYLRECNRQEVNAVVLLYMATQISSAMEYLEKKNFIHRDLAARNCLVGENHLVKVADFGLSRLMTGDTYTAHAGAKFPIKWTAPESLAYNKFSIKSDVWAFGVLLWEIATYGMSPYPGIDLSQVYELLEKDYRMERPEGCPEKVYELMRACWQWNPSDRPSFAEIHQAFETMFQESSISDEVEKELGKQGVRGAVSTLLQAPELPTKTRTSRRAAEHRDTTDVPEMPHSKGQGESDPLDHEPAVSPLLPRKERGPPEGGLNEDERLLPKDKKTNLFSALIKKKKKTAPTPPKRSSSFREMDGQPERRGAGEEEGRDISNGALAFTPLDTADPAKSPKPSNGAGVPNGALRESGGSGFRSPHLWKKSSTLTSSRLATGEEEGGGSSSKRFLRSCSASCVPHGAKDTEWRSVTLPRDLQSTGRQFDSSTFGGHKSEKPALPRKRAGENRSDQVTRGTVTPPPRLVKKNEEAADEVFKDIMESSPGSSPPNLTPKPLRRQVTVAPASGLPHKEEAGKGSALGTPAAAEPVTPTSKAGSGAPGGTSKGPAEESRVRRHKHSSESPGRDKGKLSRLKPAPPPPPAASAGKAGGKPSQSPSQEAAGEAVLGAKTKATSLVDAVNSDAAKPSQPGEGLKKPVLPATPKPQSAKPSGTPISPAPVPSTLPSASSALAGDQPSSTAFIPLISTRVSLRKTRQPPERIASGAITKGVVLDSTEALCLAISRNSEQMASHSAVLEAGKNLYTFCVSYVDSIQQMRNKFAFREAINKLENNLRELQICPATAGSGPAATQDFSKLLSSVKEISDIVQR

CC(C)(COP(=O)(O)OP(=O)(O)OC[C@H]1O[C@@H](n2cnc3c(N)ncnc32)[C@H](O)[C@@H]1OP(=O)(O)O)[C@@H](O)C(=O)NCCC(=O)NCCS [CoA, Coenzyme A]
activity at 100 µM (IKKε): 125%
activity at 100 µM (GCK): 109%
activity at 100 µM (JAK2): 106%
activity at 100 µM (MINK1): 106%
activity at 100 µM (BTK): 67.9%
BTK inhibition (in words) (BTK; kinase profiling, 100 μM): modestly inhibited
activity at 100 µM (ABL): 111%
activity at 100 µM (JNK1): 85.4%
activity at 100 µM (MKK6): 88.6%

CC(C)(COP(=O)(O)OP(=O)(O)OCC1OC(n2cnc3c(N)ncnc32)C(O)C1O)C(O)C(=O)NCCC(=O)NCCS (stereo not shown) [dpCoA, dephospho-CoA]
activity at 100 µM (IKKε): 91.4%
activity at 100 µM (GCK): 71.2%
activity at 100 µM (JAK2): 62.5%
activity at 100 µM (MINK1): 104%
activity at 100 µM (BTK): 30.6%
activity at 100 µM (ABL): 98%
activity at 100 µM (JNK1): 82.4%
activity at 100 µM (MKK6): 88.2%

Nc1ncnc2c1ncn2C1OC(COP(=O)(O)OP(=O)(O)O)C(O)C1O (stereo not shown) [ADP]
activity at 100 µM (IKKε): 73.8%
activity at 100 µM (GCK): 56.5%
activity at 100 µM (JAK2): 7.1%
activity at 100 µM (MINK1): 49.4%
activity at 100 µM (BTK): 18.2%
activity at 100 µM (ABL): 22.9%
activity at 100 µM (JNK1): 53.9%
activity at 100 µM (MKK6): 39.1%
